We go through 6 compounds from patent US10370412B2, “Beta-hairpin peptidomimetics” (Polyphor AG, priority 2013, dated 2019).

Where a SMILES comes first, the peptide text is derived from it. [ ]: non-standard residue; d: D form. Cha = N[C@@H](CC1CCCCC1)C(=O)O; Chg = N[C@H](C(=O)O)C1CCCCC1; Tle = CC(C)(C)[C@H](N)C(=O)O; dDab = NCC[C@@H](N)C(=O)O; Orn = NCCC[C@H](N)C(=O)O; Dab = NCC[C@H](N)C(=O)O; Nva = CCC[C@H](N)C(=O)O

In this data set the test system is human red blood cells (hRBC). The class given is cell-based. The conditions noted are these: red cells of human, 1 h. As to the method:
The peptides were tested for their hemolytic activity against human red blood cells (hRBC). Fresh hRBC were washed three times with phosphate buffered saline (PBS) and centrifuged for 10 min at 2000×g. Compounds (100 μg/ml) were incubated with 20% hRBC (v/v) for 1 h at 37° C. and shaking at 300 rpm. The final erythrocyte concentration was approximately 0.9×10^9 cells/ml. A value of 0% and 100% cell lyses, respectively, was determined by incubation of hRBC in the presence of PBS containing 0.001% acetic acid and 2.5% Triton X-100 in H2O, respectively. The samples were centrifuged, the supernatants were 8-fold diluted in PBS buffer and the optical densities (OD) were measured at 540 nm. The 100% lyses value (OD540H2O) gave an OD540 of approximately 0.5-1.0. Percent hemolysis was calculated as follows: (OD540peptide/OD540H2O)×100%.
Turning to `CC(C)[C@@H]1NC(=O)[C@@H]2CCCN2C(=O)[C@H]2CCCN2C(=O)[C@H](CO)NC(=O)[C@H](C)NC(=O)[C@H](C(C)(C)C)NC(=O)[C@H](CCN)NC(=O)[C@H](Cc2c[nH]c3ccccc23)NC(=O)[C@H](CCN)NC(=O)[C@@H](CCN)NC(=O)[C@H](CCCN)NC(=O)[C@H](CCN)NC(=O)[C@H](Cc2ccc(O)cc2)NC(=O)[C@H](Cc2c[nH]cn2)NC1=O` [compound 7, cyclo(-Val-His-Tyr-Dab-Orn-^DDab-Dab-Trp-Dab-tBuGly-Ala-Ser-^DPro-Pro-)] (cyclo(VHY[Dab][Orn][dDab][Dab]W[Dab][Tle]AS[dP]P)), the “Hemolysis at 100 μg/ml” value was 1%.
In the case of `CCC[C@@H]1NC(=O)[C@@H]2CCCN2C(=O)[C@H]2CCCN2C(=O)[C@H](CO)NC(=O)[C@H](C)NC(=O)[C@H](C(C)(C)C)NC(=O)[C@H](CCN)NC(=O)[C@H](Cc2c[nH]c3ccccc23)NC(=O)[C@H](CCN)NC(=O)[C@@H](CCN)NC(=O)[C@H](CCCN)NC(=O)[C@H](CCN)NC(=O)[C@H](Cc2ccc(O)cc2)NC(=O)[C@H](Cc2c[nH]cn2)NC1=O` [compound 8, cyclo(-Nva-His-Tyr-Dab-Orn-^DDab-Dab-Trp-Dab-tBuGly-Ala-Ser-^DPro-Pro-)] (cyclo([Nva]HY[Dab][Orn][dDab][Dab]W[Dab][Tle]AS[dP]P)) it was 1%; in that of `C[C@@H]1NC(=O)[C@H](C2CCCCC2)NC(=O)[C@H](CCN)NC(=O)[C@H](Cc2c[nH]c3ccccc23)NC(=O)[C@H](CCN)NC(=O)[C@@H](CCN)NC(=O)[C@H](CCCCN)NC(=O)[C@H](CCN)NC(=O)[C@H](CC2CCCCC2)NC(=O)[C@H](Cc2c[nH]c3ccccc23)NC(=O)[C@H](Cc2c[nH]c3ccccc23)NC(=O)[C@@H]2CCCN2C(=O)[C@H]2CCCN2C(=O)[C@H](CO)NC1=O` [compound 10, cyclo(-Trp-Trp-Cha-Dab-Lys-^DDab-Dab-Trp-Dab-Chg-Ala-Ser-^DPro-Pro-)] (cyclo(WW[Cha][Dab]K[dDab][Dab]W[Dab][Chg]AS[dP]P)), 1%.
With `C[C@@H]1NC(=O)[C@H](CC2CCCCC2)NC(=O)[C@H](CCN)NC(=O)[C@H](Cc2c[nH]c3ccccc23)NC(=O)[C@H](CCN)NC(=O)[C@@H](CCN)NC(=O)[C@H](CCCN)NC(=O)[C@H](CCN)NC(=O)[C@H](C(C)(C)C)NC(=O)[C@H](Cc2c[nH]c3ccccc23)NC(=O)[C@H](Cc2c[nH]c3ccccc23)NC(=O)[C@@H]2CCCN2C(=O)[C@H]2CCCN2C(=O)[C@H](CO)NC1=O` [compound 12, cyclo(-Trp-Trp-tBuGly-Dab-Orn-^DDab-Dab-Trp-Dab-Cha-Ala-Ser-^DPro-Pro-)] (cyclo(WW[Tle][Dab][Orn][dDab][Dab]W[Dab][Cha]AS[dP]P)) the figure was 3%; with `CC(C)C[C@@H]1NC(=O)[C@H](Cc2c[nH]c3ccccc23)NC(=O)[C@H](Cc2c[nH]c3ccccc23)NC(=O)[C@@H]2CCCN2C(=O)[C@H]2CCCN2C(=O)[C@H](C(C)C)NC(=O)[C@H](C)NC(=O)[C@H](C(C)C)NC(=O)[C@H](CCN)NC(=O)[C@H](Cc2c[nH]c3ccccc23)NC(=O)[C@H](CCN)NC(=O)[C@@H](CCN)NC(=O)[C@H](CCCN)NC(=O)[C@H](CCN)NC1=O` [compound 13, cyclo(-Trp-Trp-Leu-Dab-Orn-^DDab-Dab-Trp-Dab-Val-Ala-Val-^DPro-Pro-)] (cyclo(WWL[Dab][Orn][dDab][Dab]W[Dab]VAV[dP]P)), 2%; with `C[C@@H]1NC(=O)[C@H](C(C)(C)C)NC(=O)[C@H](CCN)NC(=O)[C@H](Cc2c[nH]c3ccccc23)NC(=O)[C@H](CCN)NC(=O)[C@H](CCN)NC(=O)[C@H](CCCN)NC(=O)[C@H](CCN)NC(=O)[C@H](Cc2ccc(O)cc2)NC(=O)[C@H](Cc2c[nH]cn2)NC(=O)[C@H](Cc2c[nH]c3ccccc23)NC(=O)[C@@H]2CCCN2C(=O)[C@H]2CCCN2C(=O)[C@H](CO)NC1=O` [compound 18, cyclo(-Trp-His-Tyr-Dab-Orn-Dab-Dab-Trp-Dab-tBuGly-Ala-Ser-^DPro-Pro-)] (cyclo(WHY[Dab][Orn][Dab][Dab]W[Dab][Tle]AS[dP]P)), 0%.
